Data set [1] deals with cAMP-specific 3',5'-cyclic phosphodiesterase 4D, PDE4D (h) (Homo sapiens, UniProt Q08499). Nature of the data set: IPP PDE4D enzymatic activity. Type of data set: biochemical. To be noted: control Ro 20-1724.
The target in data set [2] is T1, Prostaglandin G/H synthase 2, PTGS2 (h) (Homo sapiens, UniProt P35354).
T1 sequence (P35354 18-604): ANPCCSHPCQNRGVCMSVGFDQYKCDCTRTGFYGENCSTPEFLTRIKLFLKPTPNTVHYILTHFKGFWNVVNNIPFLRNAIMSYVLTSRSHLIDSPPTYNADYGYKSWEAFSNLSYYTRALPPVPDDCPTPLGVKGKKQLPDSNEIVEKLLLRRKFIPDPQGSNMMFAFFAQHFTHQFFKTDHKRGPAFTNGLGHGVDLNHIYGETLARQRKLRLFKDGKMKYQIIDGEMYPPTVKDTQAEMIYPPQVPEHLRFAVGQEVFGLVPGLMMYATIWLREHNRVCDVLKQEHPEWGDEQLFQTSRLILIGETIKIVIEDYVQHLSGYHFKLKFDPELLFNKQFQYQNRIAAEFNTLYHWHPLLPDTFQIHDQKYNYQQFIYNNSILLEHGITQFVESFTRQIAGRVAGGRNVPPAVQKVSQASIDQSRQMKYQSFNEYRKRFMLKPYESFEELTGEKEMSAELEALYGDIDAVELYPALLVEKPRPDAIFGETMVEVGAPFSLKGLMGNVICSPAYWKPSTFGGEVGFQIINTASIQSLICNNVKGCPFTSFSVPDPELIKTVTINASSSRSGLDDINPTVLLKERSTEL
Nature of the data set: IPP PTGS2 enzymatic activity. Type of data set: biochemical. The note with it: control NS398.

For data set [3], the system named is Thyroid hormone receptor alpha, THRA (h). The data set can be described thus: IPP THRA coactivator recruitment (agonist). Type of data set: biochemical, human.
The next data set relates to Tubulin (r). The data set can be described thus: IPP Tubulin binding. Details: species or system rat.
For another data set, the system named is HepG2 cells. The data set can be described thus: High-throughput transcriptomics (HTTr, TempO-Seq), HepG2, 24 h. The data set is classed as cell-based, human. To be noted: HepG2; for pod_httr_bifrost PoD: HTTr BIFROST PoD; for podl_path_minbmd PoD: HTTr minimum pathway BMD(L). Here is the method:
HepG2, HepaRG, and MCF7 cells were treated with each compound for 24 h across a dose range of 7 concentrations and lysed using TempO-Seq lysis buffer (BioSpyder Technologies, proprietary kit, see [Middleton et al. 2022] for method details). Sequencing was performed using TempO-Seq (BioClavis) version 2 of the human whole transcriptome panel and analyzed as described previously in Middleton et al.

For data set [4], the target named is Kappa-type opioid receptor OPRK1 (h) (Homo sapiens, UniProt P41145). To be noted: control U 50488.
Kappa-type opioid receptor OPRK1 (h), sequence (P41145 whole entry): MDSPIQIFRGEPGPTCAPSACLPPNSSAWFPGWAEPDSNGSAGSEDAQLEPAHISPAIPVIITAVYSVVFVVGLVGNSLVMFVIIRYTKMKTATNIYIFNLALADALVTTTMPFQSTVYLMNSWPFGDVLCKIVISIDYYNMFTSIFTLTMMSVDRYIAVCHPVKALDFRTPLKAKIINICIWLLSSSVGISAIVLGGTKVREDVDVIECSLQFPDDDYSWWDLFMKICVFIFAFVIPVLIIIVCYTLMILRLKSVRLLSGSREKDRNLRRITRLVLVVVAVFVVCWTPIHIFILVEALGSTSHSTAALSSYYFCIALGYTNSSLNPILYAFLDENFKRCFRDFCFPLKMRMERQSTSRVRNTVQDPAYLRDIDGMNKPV
The target of data set [5] is T2, Alpha-1A adrenergic receptor, ADRA1A (h) (Homo sapiens, UniProt P35348).
T2 sequence (P35348 1-466): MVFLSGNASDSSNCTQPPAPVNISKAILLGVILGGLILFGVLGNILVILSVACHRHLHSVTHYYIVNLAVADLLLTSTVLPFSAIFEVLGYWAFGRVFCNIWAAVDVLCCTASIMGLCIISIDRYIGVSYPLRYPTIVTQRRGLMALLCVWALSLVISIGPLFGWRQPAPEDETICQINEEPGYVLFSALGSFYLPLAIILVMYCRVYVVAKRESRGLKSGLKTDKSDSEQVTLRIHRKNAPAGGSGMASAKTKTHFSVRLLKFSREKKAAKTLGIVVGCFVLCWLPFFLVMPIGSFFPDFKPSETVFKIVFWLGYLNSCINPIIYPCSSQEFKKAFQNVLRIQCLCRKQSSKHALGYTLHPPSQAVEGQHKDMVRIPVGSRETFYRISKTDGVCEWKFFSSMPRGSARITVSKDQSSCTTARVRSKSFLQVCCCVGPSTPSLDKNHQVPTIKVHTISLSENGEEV
The note with it: control WB 4101.

Data set [6] addresses T3, 5-hydroxytryptamine receptor 3A, HTR3A (h) (Homo sapiens, UniProt P46098).
T3 sequence (P46098 24-478): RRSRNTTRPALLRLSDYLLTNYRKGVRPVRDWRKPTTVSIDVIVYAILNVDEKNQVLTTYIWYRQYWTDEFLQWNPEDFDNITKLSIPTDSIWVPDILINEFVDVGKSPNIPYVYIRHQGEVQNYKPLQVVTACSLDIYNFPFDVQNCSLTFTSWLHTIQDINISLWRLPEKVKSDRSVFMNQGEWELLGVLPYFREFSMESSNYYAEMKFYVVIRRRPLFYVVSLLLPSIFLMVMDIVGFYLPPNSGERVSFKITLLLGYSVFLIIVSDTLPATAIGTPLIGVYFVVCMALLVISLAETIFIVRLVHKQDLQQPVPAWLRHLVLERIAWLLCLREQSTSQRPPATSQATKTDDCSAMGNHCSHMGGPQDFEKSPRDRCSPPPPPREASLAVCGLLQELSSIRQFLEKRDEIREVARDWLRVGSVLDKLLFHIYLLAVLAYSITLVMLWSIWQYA
The note with it: control MDL 72222.

The target in data set [7] is 5-hydroxytryptamine receptor 2B, HTR2B (h) (Homo sapiens, UniProt P41595).
5-hydroxytryptamine receptor 2B, HTR2B (h), sequence (P41595 whole entry): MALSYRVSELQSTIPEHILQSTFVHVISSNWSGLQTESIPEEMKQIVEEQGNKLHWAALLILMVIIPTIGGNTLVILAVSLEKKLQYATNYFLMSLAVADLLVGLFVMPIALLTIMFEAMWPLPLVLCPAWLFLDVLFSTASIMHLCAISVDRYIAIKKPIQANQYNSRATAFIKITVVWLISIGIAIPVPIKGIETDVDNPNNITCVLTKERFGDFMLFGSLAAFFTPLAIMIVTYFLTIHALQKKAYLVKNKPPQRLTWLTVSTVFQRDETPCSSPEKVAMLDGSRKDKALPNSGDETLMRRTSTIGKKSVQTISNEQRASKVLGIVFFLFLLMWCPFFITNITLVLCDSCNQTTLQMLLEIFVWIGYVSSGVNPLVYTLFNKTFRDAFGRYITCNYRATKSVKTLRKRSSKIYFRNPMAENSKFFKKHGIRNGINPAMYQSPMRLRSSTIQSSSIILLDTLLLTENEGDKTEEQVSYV
The target in data set [8] is T4, Peroxisome proliferator-activated receptor alpha, PPARA (h) (Homo sapiens, UniProt Q07869).
T4 sequence (Q07869 1-468): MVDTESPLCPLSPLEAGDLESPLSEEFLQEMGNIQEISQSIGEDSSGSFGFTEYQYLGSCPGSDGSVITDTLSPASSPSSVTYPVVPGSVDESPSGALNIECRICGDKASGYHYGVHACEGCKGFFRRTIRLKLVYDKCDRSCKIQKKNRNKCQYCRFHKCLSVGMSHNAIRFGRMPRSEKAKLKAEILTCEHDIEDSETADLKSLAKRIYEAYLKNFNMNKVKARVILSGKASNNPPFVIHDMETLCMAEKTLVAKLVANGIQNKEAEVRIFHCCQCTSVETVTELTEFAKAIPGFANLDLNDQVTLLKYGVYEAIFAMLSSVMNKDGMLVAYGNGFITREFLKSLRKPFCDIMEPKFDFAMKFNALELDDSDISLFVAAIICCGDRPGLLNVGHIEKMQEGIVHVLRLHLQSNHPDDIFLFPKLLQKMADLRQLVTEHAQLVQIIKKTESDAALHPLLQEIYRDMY
Nature of the data set: IPP PPARA coactivator recruitment (agonist). Type of data set: biochemical. The note with it: 10 uM, GW 7647 for control.

In data set [9] the target is Potassium voltage-gated channel subfamily H member 2 hERG, KCNH2 (h) (Homo sapiens, UniProt Q12809).
Potassium voltage-gated channel subfamily H member 2 hERG, KCNH2 (h), sequence (Q12809 whole entry): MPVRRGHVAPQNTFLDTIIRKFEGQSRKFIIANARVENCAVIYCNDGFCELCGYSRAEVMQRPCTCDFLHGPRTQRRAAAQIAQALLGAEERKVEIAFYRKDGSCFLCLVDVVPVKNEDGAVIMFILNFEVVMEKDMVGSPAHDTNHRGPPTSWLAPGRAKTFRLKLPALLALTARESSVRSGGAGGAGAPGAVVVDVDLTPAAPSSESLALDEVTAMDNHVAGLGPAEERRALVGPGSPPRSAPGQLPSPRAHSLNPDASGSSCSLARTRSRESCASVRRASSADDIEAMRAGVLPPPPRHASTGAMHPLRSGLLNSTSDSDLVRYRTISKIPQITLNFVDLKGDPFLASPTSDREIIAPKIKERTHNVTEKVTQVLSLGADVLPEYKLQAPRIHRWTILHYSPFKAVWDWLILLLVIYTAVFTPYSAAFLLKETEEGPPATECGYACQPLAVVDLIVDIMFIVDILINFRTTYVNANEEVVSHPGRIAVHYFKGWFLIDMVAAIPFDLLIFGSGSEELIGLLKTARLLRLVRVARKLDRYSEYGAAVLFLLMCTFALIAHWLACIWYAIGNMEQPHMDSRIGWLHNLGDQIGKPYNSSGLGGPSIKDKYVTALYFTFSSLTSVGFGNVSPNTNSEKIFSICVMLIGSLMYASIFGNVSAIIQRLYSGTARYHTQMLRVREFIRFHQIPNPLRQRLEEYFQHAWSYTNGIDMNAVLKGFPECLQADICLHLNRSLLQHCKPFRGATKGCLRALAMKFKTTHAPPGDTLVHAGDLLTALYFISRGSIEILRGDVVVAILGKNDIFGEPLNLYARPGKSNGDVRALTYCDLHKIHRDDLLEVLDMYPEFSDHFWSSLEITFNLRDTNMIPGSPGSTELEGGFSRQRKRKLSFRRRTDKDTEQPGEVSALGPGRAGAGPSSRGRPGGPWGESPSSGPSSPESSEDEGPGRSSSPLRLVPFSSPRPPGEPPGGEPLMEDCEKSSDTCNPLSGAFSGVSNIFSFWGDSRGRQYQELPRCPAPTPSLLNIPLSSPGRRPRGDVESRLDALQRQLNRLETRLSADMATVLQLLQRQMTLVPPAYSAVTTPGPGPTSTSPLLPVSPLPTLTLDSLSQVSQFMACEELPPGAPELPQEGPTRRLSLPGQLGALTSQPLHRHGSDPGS
[10] abbreviates: 10 uM, ligand/control Colchicine.
[11] abbreviates: IPP screening at 10 uM, control (±)DOI.

Read-outs that look alike come from different tables or passages of the source.

cAMP-specific 3',5'-cyclic phosphodiesterase 4D, PDE4D (h), sequence (Q08499 whole entry): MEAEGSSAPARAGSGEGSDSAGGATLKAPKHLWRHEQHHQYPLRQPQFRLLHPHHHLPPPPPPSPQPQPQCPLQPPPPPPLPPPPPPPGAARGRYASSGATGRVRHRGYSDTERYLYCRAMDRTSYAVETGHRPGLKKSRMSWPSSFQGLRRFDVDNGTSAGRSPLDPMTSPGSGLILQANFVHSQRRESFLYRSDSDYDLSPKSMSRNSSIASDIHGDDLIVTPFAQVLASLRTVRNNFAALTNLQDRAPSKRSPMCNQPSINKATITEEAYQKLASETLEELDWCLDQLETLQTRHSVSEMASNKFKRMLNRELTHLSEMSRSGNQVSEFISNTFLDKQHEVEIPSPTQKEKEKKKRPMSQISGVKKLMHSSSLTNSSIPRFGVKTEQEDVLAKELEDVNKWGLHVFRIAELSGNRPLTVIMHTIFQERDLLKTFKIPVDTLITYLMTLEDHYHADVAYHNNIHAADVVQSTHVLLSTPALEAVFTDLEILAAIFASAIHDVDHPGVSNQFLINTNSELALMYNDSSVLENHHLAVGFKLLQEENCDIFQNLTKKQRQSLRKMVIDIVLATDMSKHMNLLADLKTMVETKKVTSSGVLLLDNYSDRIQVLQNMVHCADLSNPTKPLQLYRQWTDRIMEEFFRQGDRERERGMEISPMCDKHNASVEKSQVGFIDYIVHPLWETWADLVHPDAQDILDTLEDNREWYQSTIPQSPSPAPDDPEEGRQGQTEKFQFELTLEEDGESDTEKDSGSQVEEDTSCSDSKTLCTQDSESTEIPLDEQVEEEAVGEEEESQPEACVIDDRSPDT

Regarding `CCOP(=S)(OCC)Oc1nc(Cl)c(Cl)cc1Cl` [Chlorpyrifos, O,O-Diethyl O-(3,5,6-trichloropyridin-2-yl) phosphorothioate], the values for the Enzymatic activity in data set [1] (IPP screening at 10 uM) and in data set [2] (IPP screening at 10 uM) were 51.8% and -4.1%, respectively. Further, the “IPP screening %, Coactivator recruitment” value in data set [3] (10 uM, agonist, T3) was determined as 2.0%. In addition, the “IPP screening %, Specific binding” value with Tubulin (r) (setting [10]) is recorded as -20.0%. For the same molecule, in the data set on HepG2 cells, the “pod_httr_bifrost PoD” value was 0.000303 µM. Also, in the data set with HepG2 cells, the “podl_path_minbmd PoD” value turned out to be 2.42 µM. In addition, the Specific binding in data set [4] (IPP screening at 10 uM) is reported as 27.7%; in data set [5] (IPP screening at 10 uM) it was 5.4%; in data set [6] (IPP screening at 10 uM), -1.0%; in data set [7] (setting [11]), 82.5%.

For `CC(C)(C)c1ccc(CCOc2ncnc3ccccc23)cc1` [Fenazaquin, 4-[2-(4-tert-Butylphenyl)ethoxy]quinazoline], the figures for the Enzymatic activity in data set [1] (IPP screening at 10 uM) and in [2] (IPP screening at 10 uM) were 14.7% and 0.8%, respectively. The “IPP screening %, Coactivator recruitment” value in data set [8] is recorded as 1.2%; in data set [3] (10 uM, agonist, T3), -1.0%. In addition, the “IPP screening %, Specific binding” value with Tubulin (r) (setting [10]) is -2.0%; in data set [9] (10 uM, [3H] Dofetilide, control Terfenadine) it was 34.9%. Moreover, the “pod_httr_bifrost PoD” value in the data set on HepG2 cells amounted to 0.0002567 µM. Further, the “podl_path_minbmd PoD” value with HepG2 cells is given as 0.002178 µM. The Specific binding in data set [4] (IPP screening at 10 uM) was 56.7%; in data set [5] (IPP screening at 10 uM) it was 35.8%; in [6] (IPP screening at 10 uM), -0.1%; in [7] (setting [11]), 77.1%.

In the case of `CC1(C)O[C@@H]2[C@@H](CO[C@@]3(COS(N)(=O)=O)OC(C)(C)O[C@@H]23)O1` [Topiramate, [(3aS,5aR,8aR,8bS)-2,2,7,7-Tetramethyltetrahydro-2H,3aH,7H-bis[1,3]dioxolo[4,5-b:4',5'-d]pyran-3a-yl]methyl sulfamate (non-preferred name)], the Enzymatic activity came out at 27.9% in [1] (IPP screening at 100 uM) and 4.1% in [2] (IPP screening at 100 uM). The “IPP screening %, Coactivator recruitment” value in [3] (100 uM, agonist, T3, * denotes assay interference (2-Amino-6-chloro-4-nitrophenol, HC Red 3)) was found to be 0.0%. Moreover, the “IPP screening %, Specific binding” value in the data set on Tubulin (r) (100 uM, ligand/control Colchicine) is 5%; in data set [9] (human) it was -13.1%. In addition, the “pod_httr_bifrost PoD” value in the data set on HepG2 cells is 3696.73 µM. In addition, the “podl_path_minbmd PoD” value with HepG2 cells is listed as 6631.79 µM. Also, the Specific binding in data set [4] (IPP screening at 100 uM) is given as 3.7%; in [5] (IPP screening at 100 uM), 2.2%; in data set [6] (IPP screening at 100 uM), -1.3%; in data set [7] (IPP screening at 100 uM; control ±)DOI) it was -0.4%.

For “(4S,4aR,5S,5aR,6S,12aS)-4-(Dimethylamino)-3,5,6,10,12,12a-hexahydroxy-6-methyl-1,11-dioxo-1,4,4a,5,5a,6,11,12a-octahydrotetracene-2-carboxamide--hydrogen chloride (1/1) [Oxytetracycline hydrochloride]”, the Enzymatic activity in data set [1] (IPP screening at 10 uM) turned out to be 9.6%; in data set [2] (IPP screening at 10 uM), 14.5%. Further, the “IPP screening %, Coactivator recruitment” value was -0.7% in data set [8] and 1.0% in data set [3] (10 uM, agonist, T3). The “IPP screening %, Specific binding” value is -3.0% with Tubulin (r) (setting [10]) and -10.2% in data set [9]. Also, the Specific binding is 7.3% in data set [4] (IPP screening at 10 uM), 6.2% in [5] (IPP screening at 10 uM), -6.5% in data set [6] (IPP screening at 10 uM) and 5.9% in data set [7] (setting [11]).

Regarding “mixture of 2- and 3-tert-butyl-4-methoxyphenol [Butylated Hydroxyanisole]”, the Enzymatic activity in data set [1] (IPP screening at 10 uM) came to 12.2%; in data set [2] (IPP screening at 10 uM), 62.4%. Also, the “IPP screening %, Coactivator recruitment” value in data set [8] was -0.3%; in data set [3] it was 3.0%. The “IPP screening %, Specific binding” value in the data set with Tubulin (r) is listed as -5.0%. The Specific binding in [4] (IPP screening at 10 uM) is on record as 13.5%; in data set [5] (IPP screening at 10 uM), 20.2%; in data set [6] (IPP screening at 10 uM), 15.3%; in [7] (setting [11]), 80.6%.

The record behind these values is article PMC11879040, “Advancing systemic toxicity risk assessment: Evaluation of a NAM-based toolbox approach” (Toxicological Sciences, 2024).
